Laboratory results reported in patent US20080009418A1, “Selective Inhibitors” (Alchemia LTD., priority 2004, published 2008).

Assays:
Settings in all cases: compound at 10 μM
Human melanocortin (MC5) = target: T1, Human melanocortin (MC5) (Homo sapiens, UniProt P33032); assay: Radioligand binding, human melanocortin MC5 membranes, FlashPlate, [125I]-NDP-αMSH
T1 construct: purchased Perkin Elmer Biosignal
In short: (§1)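 Cloned human receptor membranes were coated onto FlashPlate wells and incubated with radioligand and compound (added from a 0.5 mM DMSO daughter plate) for 1 hour at room temperature in the dark. Scintillation counting gave percent inhibition, with DMSO defining total and reference ligand defining non-specific binding.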

Human opioid (ORL1) = target: T2, Human opioid (ORL1) (Homo sapiens, UniProt P41146); assay: Radioligand binding, human opioid ORL1 membranes, FlashPlate, [125I]-Nociceptin
T2 construct: purchased Perkin Elmer Biosignal
T2 sequence (P41146 whole entry): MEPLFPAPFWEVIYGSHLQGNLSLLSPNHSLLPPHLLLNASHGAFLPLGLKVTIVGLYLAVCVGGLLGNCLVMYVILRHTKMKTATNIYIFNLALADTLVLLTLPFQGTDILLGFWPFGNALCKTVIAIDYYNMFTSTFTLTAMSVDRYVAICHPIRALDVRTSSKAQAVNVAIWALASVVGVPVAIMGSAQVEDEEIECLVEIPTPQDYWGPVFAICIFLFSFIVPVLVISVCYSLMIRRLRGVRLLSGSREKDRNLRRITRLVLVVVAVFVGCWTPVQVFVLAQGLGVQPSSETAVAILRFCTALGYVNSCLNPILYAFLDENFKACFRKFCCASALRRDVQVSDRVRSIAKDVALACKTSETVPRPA
In short: as §1

Human Melanocortin (MC3) = target: T3, Human Melanocortin (MC3) (Homo sapiens, UniProt P41968); assay: Radioligand binding, human melanocortin MC3 membranes, FlashPlate, [125I]-NDP-αMSH
T3 construct: purchased Perkin Elmer Biosignal
T3 sequence (P41968 whole entry): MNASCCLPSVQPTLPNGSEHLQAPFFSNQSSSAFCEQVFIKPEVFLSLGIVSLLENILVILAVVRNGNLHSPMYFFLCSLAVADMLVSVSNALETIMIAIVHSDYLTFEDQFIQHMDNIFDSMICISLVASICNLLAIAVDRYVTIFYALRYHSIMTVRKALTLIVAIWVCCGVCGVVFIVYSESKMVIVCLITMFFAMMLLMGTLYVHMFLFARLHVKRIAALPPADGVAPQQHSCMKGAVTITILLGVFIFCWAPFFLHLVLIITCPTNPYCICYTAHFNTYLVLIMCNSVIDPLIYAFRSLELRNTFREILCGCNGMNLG
In short: as §1

Human κ-Opioid (KOP) = target: T4, Human κ-Opioid (KOP) (Homo sapiens, UniProt P41145); assay: Radioligand binding, human κ-opioid (KOP) membranes, filtration, [3H]-Diprenorphine
T4 construct: purchased Perkin Elmer Biosignal
T4 sequence (P41145 whole entry): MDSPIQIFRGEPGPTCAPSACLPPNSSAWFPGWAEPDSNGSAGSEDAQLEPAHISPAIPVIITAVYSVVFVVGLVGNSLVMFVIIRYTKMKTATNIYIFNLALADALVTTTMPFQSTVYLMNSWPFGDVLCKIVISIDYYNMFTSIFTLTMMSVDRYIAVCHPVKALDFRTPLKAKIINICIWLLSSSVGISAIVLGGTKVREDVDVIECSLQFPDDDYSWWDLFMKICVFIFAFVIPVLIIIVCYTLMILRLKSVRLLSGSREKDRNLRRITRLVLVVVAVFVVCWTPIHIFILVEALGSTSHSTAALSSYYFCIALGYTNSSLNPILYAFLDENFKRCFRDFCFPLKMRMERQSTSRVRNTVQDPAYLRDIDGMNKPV
In short: (§2)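 Membranes from cloned human receptors were incubated with compound and radioligand for 1 hour at room temperature. Bound ligand was collected on 0.3% PEI-soaked filters, washed with cold 50 mM Tris-HCl pH 7.4, and counted by scintillation. Percent inhibition was computed against DMSO totals and reference-ligand nonspecific wells.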

[1] = target: T5, Human neuropeptide Y (NPY-Y1) (Homo sapiens, UniProt P25929); assay: Radioligand binding, human neuropeptide Y NPY-Y1 membranes, FlashPlate, [125I]-PYY
T5 construct: purchased Perkin Elmer Biosignal
T5 sequence (P25929 1-384): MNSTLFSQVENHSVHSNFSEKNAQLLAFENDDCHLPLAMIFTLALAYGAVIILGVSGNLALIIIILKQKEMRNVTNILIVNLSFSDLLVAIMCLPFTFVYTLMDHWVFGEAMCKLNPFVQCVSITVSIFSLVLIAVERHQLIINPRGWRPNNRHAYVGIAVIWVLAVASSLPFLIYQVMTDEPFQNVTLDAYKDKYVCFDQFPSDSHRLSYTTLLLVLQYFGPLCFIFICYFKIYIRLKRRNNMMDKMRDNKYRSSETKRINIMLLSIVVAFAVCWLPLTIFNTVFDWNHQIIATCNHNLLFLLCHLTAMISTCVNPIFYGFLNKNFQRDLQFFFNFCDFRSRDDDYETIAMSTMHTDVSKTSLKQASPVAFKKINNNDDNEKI
In short: as §1

Human μ-opioid (MOP) = target: T6, Human μ-opioid (MOP) (Homo sapiens, UniProt P35372); assay: Radioligand binding, human μ-opioid (MOP) membranes, FlashPlate, [3H]-Naloxone
T6 construct: purchased Perkin Elmer Biosignal
T6 sequence (P35372 whole entry): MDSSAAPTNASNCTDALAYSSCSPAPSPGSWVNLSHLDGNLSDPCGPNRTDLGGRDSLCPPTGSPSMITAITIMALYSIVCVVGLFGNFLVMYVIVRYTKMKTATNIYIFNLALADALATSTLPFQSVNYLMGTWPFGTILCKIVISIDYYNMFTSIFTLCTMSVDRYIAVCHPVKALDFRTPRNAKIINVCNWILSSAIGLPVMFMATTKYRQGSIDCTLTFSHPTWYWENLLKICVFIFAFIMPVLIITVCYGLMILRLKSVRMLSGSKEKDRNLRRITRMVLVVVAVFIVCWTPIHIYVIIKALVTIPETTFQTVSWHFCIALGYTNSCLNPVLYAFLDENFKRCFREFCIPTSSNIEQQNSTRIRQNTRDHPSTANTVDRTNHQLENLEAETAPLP
In short: as §1

Human δ-opioid (DOP) = target: T7, Human δ-opioid (DOP) (Homo sapiens, UniProt P41143); assay: Radioligand binding, human δ-opioid (DOP) membranes, FlashPlate, [3H]-Bremazocine
T7 construct: purchased Perkin Elmer Biosignal
T7 sequence (P41143 whole entry): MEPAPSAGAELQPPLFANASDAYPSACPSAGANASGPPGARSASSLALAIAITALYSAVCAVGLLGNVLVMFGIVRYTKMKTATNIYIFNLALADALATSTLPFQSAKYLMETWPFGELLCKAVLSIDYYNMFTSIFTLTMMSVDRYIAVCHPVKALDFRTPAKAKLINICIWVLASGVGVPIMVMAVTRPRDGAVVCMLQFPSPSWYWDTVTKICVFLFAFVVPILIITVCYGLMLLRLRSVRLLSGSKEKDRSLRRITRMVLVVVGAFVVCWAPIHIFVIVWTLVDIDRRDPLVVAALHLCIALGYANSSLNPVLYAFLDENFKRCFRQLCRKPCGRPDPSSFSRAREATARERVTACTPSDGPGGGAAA
In short: as §1

Mouse urotensin (mUR2) = target: T8, Mouse urotensin (mUR2) (Mus musculus, UniProt Q8VIH9); assay: Radioligand binding, mouse urotensin mUR2 membranes, FlashPlate, [125I]-Urotensin II
T8 construct: purchased Perkin Elmer Biosignal
T8 sequence (Q8VIH9 1-385): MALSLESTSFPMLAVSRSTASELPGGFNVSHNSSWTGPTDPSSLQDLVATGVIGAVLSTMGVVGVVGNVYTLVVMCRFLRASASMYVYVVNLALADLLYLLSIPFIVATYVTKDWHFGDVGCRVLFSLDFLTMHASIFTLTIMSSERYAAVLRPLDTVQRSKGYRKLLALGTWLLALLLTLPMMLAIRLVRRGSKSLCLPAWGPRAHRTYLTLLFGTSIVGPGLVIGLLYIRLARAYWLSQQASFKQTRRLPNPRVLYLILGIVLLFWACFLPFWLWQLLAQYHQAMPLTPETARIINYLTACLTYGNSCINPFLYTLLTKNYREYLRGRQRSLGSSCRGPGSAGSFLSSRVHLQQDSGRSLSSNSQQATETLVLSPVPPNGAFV
In short: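 Cloned mouse urotensin (mUR2) receptor membranes from Perkin Elmer Biosignal were immobilized in FlashPlate microplates using a proprietary coating. Each well got 19.5 μl buffer, then 0.5 μl of DMSO, reference ligand, or compound. Adding 5 μl of [125I]-Urotensin II, diluted to 5× final concentration in binding buffer, started binding. Plates were sealed with TopSeal-A and incubated 1 hour at room temperature in the dark. Wells were counted for 30 seconds each on a TopCount after a 60-second delay, and percentage inhibition was calculated.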

[2] = target: T9, Human melanin-concentrating hormone (MCH1) (Homo sapiens, UniProt Q99705); assay: Radioligand binding, human melanin-concentrating hormone MCH1 membranes, FlashPlate, [125I]-S36057
T9 construct: purchased Perkin Elmer Biosignal
T9 sequence (Q99705 whole entry): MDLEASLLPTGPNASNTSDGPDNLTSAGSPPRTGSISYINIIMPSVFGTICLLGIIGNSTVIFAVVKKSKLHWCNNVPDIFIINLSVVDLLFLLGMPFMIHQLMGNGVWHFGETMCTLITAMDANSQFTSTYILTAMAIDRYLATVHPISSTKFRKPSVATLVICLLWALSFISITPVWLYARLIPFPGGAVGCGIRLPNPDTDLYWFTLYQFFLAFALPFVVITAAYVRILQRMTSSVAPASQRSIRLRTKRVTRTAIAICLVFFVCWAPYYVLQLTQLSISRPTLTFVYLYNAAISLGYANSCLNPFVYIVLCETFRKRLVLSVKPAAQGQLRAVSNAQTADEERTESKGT
In short: as §1

Human Melanocortin (MC4) = target: T10, Human Melanocortin (MC4) (Homo sapiens, UniProt P32245); assay: Radioligand binding, human melanocortin MC4 membranes, FlashPlate, [125I]-NDP-αMSH
T10 construct: purchased Perkin Elmer Biosignal
T10 sequence (P32245 whole entry): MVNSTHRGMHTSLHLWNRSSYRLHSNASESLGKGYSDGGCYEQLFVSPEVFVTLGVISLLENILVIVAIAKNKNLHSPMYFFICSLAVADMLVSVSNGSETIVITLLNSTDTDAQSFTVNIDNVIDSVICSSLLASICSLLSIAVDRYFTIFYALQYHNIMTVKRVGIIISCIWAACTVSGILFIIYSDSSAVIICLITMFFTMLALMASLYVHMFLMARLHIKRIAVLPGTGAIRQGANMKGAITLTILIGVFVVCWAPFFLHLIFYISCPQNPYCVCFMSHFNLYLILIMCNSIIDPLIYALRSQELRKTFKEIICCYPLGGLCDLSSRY
In short: as §1

Human neurokinin (NK1) = target: T11, Human neurokinin (NK1) (Homo sapiens, UniProt P25103); assay: Radioligand binding, human neurokinin NK1 membranes, filtration, [125I]-Substance P
T11 construct: purchased Perkin Elmer Biosignal
T11 sequence (P25103 whole entry): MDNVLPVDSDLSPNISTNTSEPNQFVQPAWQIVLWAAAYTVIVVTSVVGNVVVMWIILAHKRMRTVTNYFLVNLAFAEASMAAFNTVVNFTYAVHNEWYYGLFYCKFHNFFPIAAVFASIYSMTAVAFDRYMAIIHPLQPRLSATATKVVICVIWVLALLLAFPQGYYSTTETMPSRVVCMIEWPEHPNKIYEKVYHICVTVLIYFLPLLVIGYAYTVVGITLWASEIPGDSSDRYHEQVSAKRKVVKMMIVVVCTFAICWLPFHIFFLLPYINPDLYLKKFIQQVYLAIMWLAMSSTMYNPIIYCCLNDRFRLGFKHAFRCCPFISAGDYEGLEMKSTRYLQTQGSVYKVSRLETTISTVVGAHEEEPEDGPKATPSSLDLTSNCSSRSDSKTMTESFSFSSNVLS
In short: as §2

T1 sequence (P33032 whole entry): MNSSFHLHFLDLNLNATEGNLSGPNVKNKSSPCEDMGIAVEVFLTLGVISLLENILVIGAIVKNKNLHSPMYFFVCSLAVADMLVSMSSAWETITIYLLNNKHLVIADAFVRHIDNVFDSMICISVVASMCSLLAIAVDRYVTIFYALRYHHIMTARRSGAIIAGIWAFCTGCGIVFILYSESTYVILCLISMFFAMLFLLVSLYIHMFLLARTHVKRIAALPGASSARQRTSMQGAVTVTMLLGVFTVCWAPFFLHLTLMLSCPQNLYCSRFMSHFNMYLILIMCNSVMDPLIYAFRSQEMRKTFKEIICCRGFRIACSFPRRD

COC[C@H]1OC(OCc2ccc(Cl)cc2)[C@H](NC(=O)CNC(=N)N)[C@@H](OCc2ccc3ccccc3c2)[C@@H]1O (stereo partly shown) [compound 31]
A5 radioligand binding inhibition (Human melanocortin (MC5); human melanocortin MC5 membranes): + (“+” indicates greater than 50% inhibition at 10 μM) | A10 radioligand binding inhibition (Human opioid (ORL1); human ORL1 membranes): − (“−” indicates less than 50% inhibition at 10 μM) | A3 radioligand binding inhibition (Human Melanocortin (MC3); human melanocortin MC3 membranes): + (“+” indicates greater than 50% inhibition at 10 μM) | A2 radioligand binding inhibition (Human κ-Opioid (KOP); human κ-opioid (KOP) membranes): − (“−” indicates less than 50% inhibition at 10 μM) | A9 radioligand binding inhibition ([1]; human NPY-Y1 membranes): − (“−” indicates less than 50% inhibition at 10 μM) | A7 radioligand binding inhibition (Human μ-opioid (MOP); human μ-opioid (MOP) membranes): + (“+” indicates greater than 50% inhibition at 10 μM) | A1 radioligand binding inhibition (Human δ-opioid (DOP); human δ-opioid (DOP) membranes): − (“−” indicates less than 50% inhibition at 10 μM) | A11 radioligand binding inhibition (Mouse urotensin (mUR2); mouse urotensin mUR2 membranes): − (“−” indicates less than 50% inhibition at 10 μM) | A6 radioligand binding inhibition ([2]; human MCH1 membranes): − (“−” indicates less than 50% inhibition at 10 μM) | A4 radioligand binding inhibition (Human Melanocortin (MC4); human melanocortin MC4 membranes): − (“−” indicates less than 50% inhibition at 10 μM) | A8 radioligand binding inhibition (Human neurokinin (NK1); human neurokinin NK1 membranes): − (“−” indicates less than 50% inhibition at 10 μM)

CO[C@H]1[C@H](O)[C@@H](COCc2ccc(Cl)cc2)OC(OCc2cccc(O)c2)[C@@H]1NC(=O)CCCNC(=N)N (stereo partly shown) [compound 170]
A5 radioligand binding, percentage inhibition (Human melanocortin (MC5); [125I]-NDP-αMSH): + (“+” indicates greater than 50% inhibition at 10 μM) | A10 radioligand binding, percentage inhibition (Human opioid (ORL1); [125I]-Nociceptin): − (“−” indicates less than 50% inhibition at 10 μM) | A3 radioligand binding, percentage inhibition (Human Melanocortin (MC3); [125I]-NDP-αMSH): − (“−” indicates less than 50% inhibition at 10 μM) | A2 radioligand binding, percentage inhibition (Human κ-Opioid (KOP); [3H]-Diprenorphine): − (“−” indicates less than 50% inhibition at 10 μM) | A9 radioligand binding, percentage inhibition ([1]; [125I]-PYY): − (“−” indicates less than 50% inhibition at 10 μM) | A7 radioligand binding, percentage inhibition (Human μ-opioid (MOP); [3H]-Naloxone): + (“+” indicates greater than 50% inhibition at 10 μM) | A1 radioligand binding, percentage inhibition (Human δ-opioid (DOP); [3H]-Bremazocine): − (“−” indicates less than 50% inhibition at 10 μM) | A11 radioligand binding, percentage inhibition (Mouse urotensin (mUR2); [125I]-Urotensin II): − (“−” indicates less than 50% inhibition at 10 μM) | A6 radioligand binding, percentage inhibition ([2]; [125I]-S36057): − (“−” indicates less than 50% inhibition at 10 μM) | A4 radioligand binding, percentage inhibition (Human Melanocortin (MC4); [125I]-NDP-αMSH): − (“−” indicates less than 50% inhibition at 10 μM) | A8 radioligand binding, percentage inhibition (Human neurokinin (NK1); [125I]-Substance P): + (“+” indicates greater than 50% inhibition at 10 μM)
